Here are results for eight molecules from ChEMBL document CHEMBL1155501, “Studies on two types of PTP1B inhibitors for the treatment of type 2 diabetes: Hologram QSAR for OBA and BBB analogues” (Bioorg Med Chem Lett, 2010).

This assay addresses T1, Tyrosine-protein phosphatase non-receptor type 1 (Homo sapiens, UniProt P18031).
T1 sequence (P18031 whole entry): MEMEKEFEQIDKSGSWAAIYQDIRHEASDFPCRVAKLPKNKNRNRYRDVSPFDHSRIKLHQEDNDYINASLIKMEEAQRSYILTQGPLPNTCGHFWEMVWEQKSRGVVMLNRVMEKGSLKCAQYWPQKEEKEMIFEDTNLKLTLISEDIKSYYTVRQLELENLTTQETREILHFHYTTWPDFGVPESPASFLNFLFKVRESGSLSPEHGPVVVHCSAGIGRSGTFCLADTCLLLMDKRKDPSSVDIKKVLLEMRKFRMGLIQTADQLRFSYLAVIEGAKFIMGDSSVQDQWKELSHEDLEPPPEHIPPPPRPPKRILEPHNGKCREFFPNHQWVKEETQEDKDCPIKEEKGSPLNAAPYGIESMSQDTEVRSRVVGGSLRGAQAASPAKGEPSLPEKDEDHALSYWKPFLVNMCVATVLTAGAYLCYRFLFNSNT
Description: Binding affinity to human recombinant PTP1B.
For the molecule `CCCCc1sc2ccccc2c1-c1ccc(-c2ccc(OCC(=O)O)cc2)cc1`, the IC50 was 2190 nM. For `Cc1cccc(C(=O)O)c1NC(=O)C(=O)O`, the Ki is 1260 µM. As to `O=C(O)C(=O)Nc1sc2c(c1C(=O)O)CCS(=O)(=O)C2`, the Ki was 6.03 µM. Consider `O=C(O)/C=C/C(=O)Nc1cc(-c2ccc(-c3c(Cc4ccccc4)oc4ccccc34)cc2)ccc1O`, for which the IC50 was 457 nM. On the same count and under the same terms, the value for `O=C(O)[C@H](Oc1ccc(-c2ccc(-c3c(Cc4ccc(O)cc4O)sc4ccccc34)cc2)cc1)c1ccccc1` was 120 nM. As to `Nc1cccc(-c2cc(NC(=O)C(=O)O)c(C(=O)O)s2)c1`, the Ki was 6.03 µM. On to `CCCCc1sc2ccccc2c1-c1ccc(-c2ccc(O)cc2)cc1`, for which the IC50 was 692 nM.

With `Oc1c(Br)cc(-c2ccc(-c3c(Cc4ccccc4)sc4ccccc34)cc2)cc1Br`, the IC50 is 447 nM.
